Measured values: PMC4303209, “A novel phosphatidylinositol 3-kinase (PI3K) inhibitor directs a potent FOXO-dependent, p53-independent cell cycle arrest phenotype characterized by the differential induction of a subset of FOXO-regulated genes” (Breast Cancer Research : BCR, 2014)

System: MCF-7 breast cancer cells
Experiment: Microarray gene expression analysis (Agilent whole human genome 4 x 44K; compound vs DMSO, LIMMA log2 fold change)
Type: cell-based
Conditions: Apoptosis genes

## Cn1ncc2c(N3CCOCC3)nc(-c3cccc(O)c3)nc21 [ETP-45658]
Gene 6899
  TBX1 log2FC: -0.252
Gene 6910
  TBX5 log2FC: 0.253
Gene 6926
  TBX3 log2FC: -0.702
Gene 6934
  TCF7L2 log2FC: 0.069
Gene 6997
  TDGF1 log2FC: -0.229
Gene 7001
  PRDX2 log2FC: 0.238
Gene 7013
  TERF1 log2FC: 0.607
Gene 7015
  TERT log2FC: -0.174
Gene 7020
  TFAP2A log2FC: -0.422
Gene 7021
  TFAP2B log2FC: -0.228
Gene 7023
  TFAP4 log2FC: 0.268
Gene 7039
  TGFA log2FC: -0.305
Gene 7040
  TGFB1 log2FC: -0.640
Gene 7043
  TGFB3 log2FC: 0.297
Gene 7046
  TGFBR1 log2FC: 0.107
Gene 7048
  TGFBR2 log2FC: 0.848
Gene 7052
  TGM2 log2FC: -0.663
Gene 7057
  THBS1 log2FC: -0.941
Gene 7067
  THRA log2FC: 0.422
Gene 7072
  TIA1 log2FC: 0.264
Gene 7073
  TIAL1 log2FC: 0.293
Gene 7074
  TIAM1 log2FC: -0.410
Gene 7076
  TIMP1 log2FC: -0.529
Gene 7082
  TJP1 log2FC: 0.201
Gene 7088
  TLE1 log2FC: 0.258
Gene 7097
  TLR2 log2FC: -0.108
Gene 7098
  TLR3 log2FC: 0.853
Gene 7101
  NR2E1 log2FC: -0.094
Gene 7110
  TMF1 log2FC: 0.560
Gene 7124
  TNF log2FC: -1.647
Gene 7126
  TNFAIP1 log2FC: -0.176
Gene 7128
  TNFAIP3 log2FC: -0.659
Gene 7132
  TNFRSF1A log2FC: -1.037
Gene 7153
  TOP2A log2FC: 0.987
Gene 7157
  TP53 log2FC: -0.193
Gene 7159
  TP53BP2 log2FC: 0.300
Gene 7161
  TP73 log2FC: -0.503
Gene 7164
  TPD52L1 log2FC: 0.379
Gene 7178
  TPT1 log2FC: 0.799
Gene 7184
  HSP90B1 log2FC: 0.583
Gene 7185
  TRAF1 log2FC: -0.690
Gene 7187
  TRAF3 log2FC: -0.696
Gene 7188
  TRAF5 log2FC: 0.441
Gene 7189
  TRAF6 log2FC: -0.110
Gene 7204
  TRIO log2FC: 0.329
Gene 7227
  TRPS1 log2FC: 0.712
Gene 7262
  PHLDA2 log2FC: -2.933
Gene 7291
  TWIST1 log2FC: 0.401
Gene 7293
  TNFRSF4 log2FC: -0.061
Gene 7301
  TYRO3 log2FC: -0.084
Gene 7311
  UBA52 log2FC: 0.322
Gene 7314
  UBB log2FC: 0.069
Gene 7316
  UBC log2FC: 0.294
Gene 7320
  UBE2B log2FC: 0.582
Gene 7323
  UBE2D3 log2FC: -0.312
Gene 7349
  UCN log2FC: 0.210
Gene 7351
  UCP2 log2FC: 0.279
Gene 7374
  UNG log2FC: -0.235
Gene 7409
  VAV1 log2FC: 0.573
Gene 7410
  VAV2 log2FC: 0.047
Gene 7415
  VCP log2FC: -0.341
Gene 7416
  VDAC1 log2FC: -0.389
Gene 7421
  VDR log2FC: -0.801
Gene 7423
  VEGFB log2FC: -0.219
Gene 7428
  VHL log2FC: 0.156
Gene 7466
  WFS1 log2FC: -0.738
Gene 7474
  WNT5A log2FC: 0.075
Gene 7476
  WNT7A log2FC: -0.084
Gene 7477
  WNT7B log2FC: -0.527
Gene 7480
  WNT10B log2FC: -0.451
Gene 7481
  WNT11 log2FC: -0.151
Gene 7483
  WNT9A log2FC: 0.073
Gene 7486
  WRN log2FC: 0.441
Gene 7490
  WT1 log2FC: -0.635
Gene 7498
  XDH log2FC: 0.061
Gene 7507
  XPA log2FC: 0.451
Gene 7516
  XRCC2 log2FC: -0.596
Gene 7518
  XRCC4 log2FC: 0.589
Gene 7529
  YWHAB log2FC: 0.414
Gene 7531
  YWHAE log2FC: 0.239
Gene 7532
  YWHAG log2FC: -0.492
Gene 7533
  YWHAH log2FC: -0.469
Gene 7534
  YWHAZ log2FC: -0.139
Gene 7564
  ZNF16 log2FC: 0.343
Gene 7703
  PCGF2 log2FC: -0.266
Gene 7818
  DAP3 log2FC: 0.449
Gene 7832
  BTG2 log2FC: -1.109
Gene 7849
  PAX8 log2FC: 0.414
Gene 7855
  FZD5 log2FC: -0.562
Gene 7857
  SCG2 log2FC: 0.617
Gene 8013
  NR4A3 log2FC: 0.735
Gene 8022
  LHX3 log2FC: 0.038
Gene 8045
  RASSF7 log2FC: 0.255
Gene 8061
  FOSL1 log2FC: -2.502
Gene 8065
  CUL5 log2FC: -0.432
Gene 8087
  FXR1 log2FC: 0.876
Gene 8091
  HMGA2 log2FC: -1.656
Gene 8200
  GDF5 log2FC: -0.419
Gene 8241
  RBM10 log2FC: -0.320
Gene 8312
  AXIN1 log2FC: 0.481
Gene 8382
  NME5 log2FC: 0.189
Gene 8398
  PLA2G6 log2FC: -0.247
Gene 8406
  SRPX log2FC: 0.110
Gene 8428
  STK24 log2FC: -0.121
Gene 8439
  NSMAF log2FC: 0.488
Gene 8445
  DYRK2 log2FC: -0.546
Gene 8451
  CUL4A log2FC: 0.552
Gene 8452
  CUL3 log2FC: 0.137
Gene 8453
  CUL2 log2FC: 0.454
Gene 8454
  CUL1 log2FC: 0.479
Gene 8462
  KLF11 log2FC: 1.337
Gene 8473
  OGT log2FC: 0.232
Gene 8517
  IKBKG log2FC: -0.398
Gene 8535
  CBX4 log2FC: -0.217
Gene 8539
  API5 log2FC: -0.382
Gene 8565
  YARS log2FC: -0.265
Gene 8567
  MADD log2FC: 0.423
Gene 8633
  UNC5C log2FC: -0.082
Gene 8644
  AKR1C3 log2FC: 0.209
Gene 8648
  NCOA1 log2FC: 0.390
Gene 8655
  DYNLL1 log2FC: -0.944
Gene 8660
  IRS2 log2FC: 0.732
Gene 8678
  BECN1 log2FC: 0.486
Gene 8682
  PEA15 log2FC: 0.593
Gene 8692
  HYAL2 log2FC: -0.387
Gene 8717
  TRADD log2FC: 0.340
Gene 8718
  TNFRSF25 log2FC: -0.499
Gene 8737
  RIPK1 log2FC: -0.187
Gene 8738
  CRADD log2FC: -0.101
Gene 8739
  HRK log2FC: 0.385
Gene 8767
  RIPK2 log2FC: 0.592
Gene 8771
  TNFRSF6B log2FC: -1.094
Gene 8772
  FADD log2FC: -0.522
Gene 8784
  TNFRSF18 log2FC: -0.321
Gene 8793
  TNFRSF10D log2FC: -0.444
Gene 8795
  TNFRSF10B log2FC: -0.935
Gene 8797
  TNFRSF10A log2FC: -0.657
Gene 8805
  TRIM24 log2FC: 0.836
Gene 8829
  NRP1 log2FC: -0.517
Gene 8831
  SYNGAP1 log2FC: -0.373
Gene 8835
  SOCS2 log2FC: 0.750
Gene 8837
  CFLAR log2FC: -0.499
Gene 8841
  HDAC3 log2FC: -0.217
Gene 8846
  ALKBH1 log2FC: -0.105
Gene 8848
  TSC22D1 log2FC: 0.485
Gene 8851
  CDK5R1 log2FC: -0.154
Gene 8854
  ALDH1A2 log2FC: 0.218
Gene 8870
  IER3 log2FC: -1.789
Gene 8874
  ARHGEF7 log2FC: 0.162
Gene 8877
  SPHK1 log2FC: -0.334
Gene 8878
  SQSTM1 log2FC: 0.788
Gene 8879
  SGPL1 log2FC: -0.071
Gene 8887
  TAX1BP1 log2FC: 1.376
Gene 8915
  BCL10 log2FC: 0.158
Gene 8930
  MBD4 log2FC: 0.489
Gene 8996
  NOL3 log2FC: 0.514
